Like-named read-outs stand apart in the source and are kept apart here.

The values that follow come from patent US20240360134A1, “PYRAZOLOPYRIMIDINES AND THEIR USES AS PDGFR INHIBITORS” (priority 2021, published 2024).

One assay has as its target VEGFR2, unphosphorylated (Homo sapiens (Human), UniProt P35968). Description: VEGFR ADP GLO assay. The class given is biochemical. Conditions: 5 nM VEGFR2, 1.2 mM ATP, 1 mg/mL Srctide, 180 min. How it is done: Assay buffer stock contains 50 mM HEPES pH7.5, 10 mM MgCl2, 0.01% Brij-35, and 1 mM EGTA.
Unphosphorylated VEGFR2. 52.6 μM in 50 mM Tris-HCl, pH 8.0, 50 mM NaCl, 5% Glycerol, 0.5 mM TCEP. Store at −80° C. in aliquots.
10 mg/mL srctide solution, prepared in Assay buffer (Assay buffer stock with 2 mM DTT, 0.1% Pluronic F-127, and 0.1 mg/mL ovalbumin). Sonicate 10 mg/ml Srctide solution for 10 minutes and then vacuum filter.
Assay buffer. Add DTT to 2 mM, Pluronic F-127 to 0.1% and ovalbumin to 0.1 mg/mL to Assay buffer stock.
2× kinase solution. Make a working solution of 10 nM unphosphorylated VEGFR2 in Assay buffer. Vacuum filter 2× kinase solution prior to running assay. Keep on ice until use.
2× substrate/ATP solution. Make a working solution of 2 mg/mL srctide and 2.4 mM ATP in Assay buffer. Keep on ice until use.
Step 1. Dispensing inhibitors/controls: Using Echo, dispense 10 nL/well compound serial dilutions in DMSO to columns 1-22 (in 384-well plates) or columns 1-44 (in 1536-well plates). Dilution series=11 pt, 3-fold dilutions. The top compound concentration in the source plate is 4 mM. The top compound concentration in the assay plate is 10 uM. Using Echo, dispense 10 nl/well DMSO to column 23 (in 384-well plates) or columns 45-47 (in 1536-well plates). These wells will serve as negative control wells Using Echo, dispense 10 nl/well 400 uM TAK-593 in DMSO to column 24 (in 384-well plates) or column 48 (in 1536-well plates). The final concentration of TAK-593 in the assay should be 1 uM. These wells will serve as positive control wells.
Step 2. Pre-incubation of inhibitors with kinase: Add 2 μL/well 2× kinase solution. Centrifuge at 1000 rpm for 1 min. Incubate at room temperature for 30 min.
Step 3. Kinase cascade reaction: Add 2 μL/well 2× substrate/ATP solution to initiate kinase reactions. Centrifuge at 1000 rpm for 1 min. Incubate at room temperature for 180 min.
Final concentrations of components in the assay:
Step 4. Quench: Add 2 uL/well ADP Glo Reagent+0.05% CHAPS. Centrifuge at 1000 rpm for 1 min; Incubate at room temperature for one hour.
Step 5. Detection: Add 2 uL/well Kinase Detection Reagent+0.05% CHAPS. Centrifuge at 1000 rpm for 1 min; Incubate at room temperature for 1 hour; Read Luminescence on a plate reader.
% Inhibition: % Inhibition=(NC−sample)/(NC−PC)*100 where NC is the mean of negative control (reactions without inhibitor), and PC is the mean of positive control (1 μM TAK-593).
IC50 values are determined from a 4-parameter fit, using the following equation: Y=Bottom+(Top−Bottom)/(1+10^(Log IC50-X)*Hill Slope), where X=log10 of the compound concentration; top can be defined by PC; bottom defined by NC.
In general terms: In ADP-Glo the light output rises with the ADP produced.

The target in another assay is PDGFRβ (Rattus norvegicus (Rat), UniProt Q05030). Description: PDGFRβ Cellular Assay (PDGFRb P-Y751 HTRF, PDGF-BB stimulated A10 cells). The class given is cell-based. The method, then: Cell Culture and Preparation: Cells are cultured according to ATCC procedure (5) with the addition of the antibiotic penicillin-streptomycin. If working from frozen, cells should be thawed according to ATCC procedure. Depending on the cell density of frozen vial, cells will need time to recover from thaw. An 80% confluent T75 flask should be enough for one 384 well plate.
Stock Solutions: Rat PDGFBB. A 100 ug/mL stock is prepared by reconstituting 50 ug in 500 μL of 4 mM HCl and 0.1% BSA. It can be stored for a month at 4° C., or aliquoted out and frozen in the −20/−80° C. to avoid multiple free-thaw cycles.
1× Cisbio cell lysis buffer. The cell lysis buffer is diluted 4-fold with molecular grade water. The blocking agent is then diluted 25-fold in the diluted lysis buffer.
Antibody solutions. Equal amounts d2 and cryptate antibody are diluted 20-fold in detection buffer.
Rat PDGFBB. A working stock of 100 ng/mL is created from the stock solution in 10% FBS culture media.
Step 1: Plating Cells: Media from the A10 cell flask is aspirated. The cells are rinsed with PBS and then trypsinized to disperse the cell layer. The cells are then pelleted are resuspended to 1.25e5 cells/mL. […] Plates are covered and placed in the incubator (37° C. 5% CO2) overnight to allow cells to adhere.
Step 2: Compound Dispense: Approximately 18 hours after plating, dispense 40 nL compound onto cells using Echo. […] The plate is returned to the incubator for 3 hours.
After 10 minutes the media is removed by flicking the plate.
Step 4: Cell lysis and antibody addition: 20 uL lysis buffer per well is added to the plate via Tempest. 5 uL antibody solution is added per well via the Tempest. The plate is placed on the shaker at 230 rpm for 1 hour at room temperature.
Step 5: Detection: The plate is read using the HTRF module on the BMG Pherastar. Data is analyzed using Genedata Screener.
IC50 values are determined from a 4-parameter fit, using the following equation: Y=Bottom+(Top−Bottom)/(1+10((Log IC50−X)*Hill slope)), where X=log10 of the compound concentration; top can be defined by PC; bottom defined by NC.
On the technique in general: TR-FRET usually uses a lanthanide donor and a delayed reading to cut background.

Chain of PDGFRβ (Q05030 whole entry, looked up): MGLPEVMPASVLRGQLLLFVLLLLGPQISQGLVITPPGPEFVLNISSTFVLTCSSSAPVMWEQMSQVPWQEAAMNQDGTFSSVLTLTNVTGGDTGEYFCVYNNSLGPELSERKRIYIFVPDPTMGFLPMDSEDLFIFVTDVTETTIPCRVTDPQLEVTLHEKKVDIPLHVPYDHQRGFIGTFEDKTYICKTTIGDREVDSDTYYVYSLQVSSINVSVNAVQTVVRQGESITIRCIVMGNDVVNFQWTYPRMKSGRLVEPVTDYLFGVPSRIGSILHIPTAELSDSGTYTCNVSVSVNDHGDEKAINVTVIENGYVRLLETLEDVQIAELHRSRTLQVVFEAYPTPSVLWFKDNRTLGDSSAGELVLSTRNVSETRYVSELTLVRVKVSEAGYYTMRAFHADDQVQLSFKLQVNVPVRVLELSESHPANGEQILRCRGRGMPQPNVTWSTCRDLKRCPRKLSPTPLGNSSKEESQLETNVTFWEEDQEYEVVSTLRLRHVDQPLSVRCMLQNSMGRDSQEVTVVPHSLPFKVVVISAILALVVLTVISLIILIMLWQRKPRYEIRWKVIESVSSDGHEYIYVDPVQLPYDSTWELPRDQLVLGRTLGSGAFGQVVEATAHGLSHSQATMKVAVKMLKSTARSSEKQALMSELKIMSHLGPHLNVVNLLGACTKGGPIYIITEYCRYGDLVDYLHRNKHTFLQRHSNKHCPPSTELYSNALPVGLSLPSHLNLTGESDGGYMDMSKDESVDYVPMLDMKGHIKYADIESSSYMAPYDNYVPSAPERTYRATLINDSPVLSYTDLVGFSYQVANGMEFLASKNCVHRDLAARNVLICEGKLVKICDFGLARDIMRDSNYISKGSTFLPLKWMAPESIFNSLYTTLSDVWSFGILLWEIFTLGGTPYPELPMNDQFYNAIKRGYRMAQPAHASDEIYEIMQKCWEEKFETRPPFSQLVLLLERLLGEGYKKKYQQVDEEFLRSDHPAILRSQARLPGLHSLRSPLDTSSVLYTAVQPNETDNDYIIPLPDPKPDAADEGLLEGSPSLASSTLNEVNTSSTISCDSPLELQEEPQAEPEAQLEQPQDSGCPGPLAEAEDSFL
Chain of VEGFR2, unphosphorylated (P35968 whole entry, looked up): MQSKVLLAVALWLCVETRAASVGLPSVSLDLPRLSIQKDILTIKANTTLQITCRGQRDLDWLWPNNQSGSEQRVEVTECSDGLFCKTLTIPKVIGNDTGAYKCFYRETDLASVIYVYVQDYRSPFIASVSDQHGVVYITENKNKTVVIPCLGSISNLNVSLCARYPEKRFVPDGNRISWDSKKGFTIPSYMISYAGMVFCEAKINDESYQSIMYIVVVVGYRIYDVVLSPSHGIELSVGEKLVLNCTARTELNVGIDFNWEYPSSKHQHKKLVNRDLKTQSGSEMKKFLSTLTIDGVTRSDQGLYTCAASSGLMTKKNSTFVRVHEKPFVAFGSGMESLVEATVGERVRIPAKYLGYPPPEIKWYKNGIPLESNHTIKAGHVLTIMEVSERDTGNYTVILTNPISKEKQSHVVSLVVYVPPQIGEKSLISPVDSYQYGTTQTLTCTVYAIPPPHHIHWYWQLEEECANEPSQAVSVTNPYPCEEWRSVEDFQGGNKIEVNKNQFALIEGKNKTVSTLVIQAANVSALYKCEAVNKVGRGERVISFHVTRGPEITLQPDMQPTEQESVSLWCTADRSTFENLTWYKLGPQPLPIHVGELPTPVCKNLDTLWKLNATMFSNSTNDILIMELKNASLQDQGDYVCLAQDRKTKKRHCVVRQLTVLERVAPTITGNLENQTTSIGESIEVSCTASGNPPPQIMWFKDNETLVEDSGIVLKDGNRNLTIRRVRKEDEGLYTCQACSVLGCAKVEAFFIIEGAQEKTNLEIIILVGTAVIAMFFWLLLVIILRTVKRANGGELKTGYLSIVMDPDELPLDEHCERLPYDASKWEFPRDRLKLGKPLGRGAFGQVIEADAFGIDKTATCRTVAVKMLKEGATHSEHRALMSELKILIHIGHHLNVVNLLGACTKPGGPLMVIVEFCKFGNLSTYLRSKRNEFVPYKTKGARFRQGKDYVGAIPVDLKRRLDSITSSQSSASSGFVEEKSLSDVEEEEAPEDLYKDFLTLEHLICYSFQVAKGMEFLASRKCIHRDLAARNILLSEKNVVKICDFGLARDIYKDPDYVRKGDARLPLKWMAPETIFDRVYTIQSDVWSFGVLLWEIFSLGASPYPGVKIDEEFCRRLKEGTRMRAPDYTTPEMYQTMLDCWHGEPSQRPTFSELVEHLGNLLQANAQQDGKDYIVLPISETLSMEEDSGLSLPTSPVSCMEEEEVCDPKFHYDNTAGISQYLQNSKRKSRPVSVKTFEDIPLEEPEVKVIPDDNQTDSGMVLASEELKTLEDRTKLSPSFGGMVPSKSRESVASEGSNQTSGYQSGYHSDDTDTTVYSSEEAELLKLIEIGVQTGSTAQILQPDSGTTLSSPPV

As for `Cc1ncc(C(=O)NCCN2CCC3(CC2)COC3)cc1Nc1nn(C)c2nc(Nc3cnn(C)c3)ncc12` [Example 20, N-(2-(2-oxa-7-azaspiro[3.5]nonan-7-yl)ethyl)-6-methyl-5-((1-methyl-6-((1-methyl-1H-pyrazol-4-yl)amino)-1H-pyrazolo[3,4-d]pyrimidin-3-yl)amino)nicotinamide], the IC50 (usually the concentration at which inhibition is half-maximal) at VEGFR2, unphosphorylated was more than 7500 nM; at PDGFRβ it was 168 nM.

Take `Cc1ncc(C(=O)NCCN(C)C2CCOCC2)cc1Nc1nn(C)c2nc(Nc3cnn(C)c3)ncc12` [Example 21, 6-methyl-N-(2-(methyl(tetrahydro-2H-pyran-4-yl)amino)ethyl)-5-((1-methyl-6-((1-methyl-1H-pyrazol-4-yl)amino)-1H-pyrazolo[3,4-d]pyrimidin-3-yl)amino)nicotinamide]: the IC50 against VEGFR2, unphosphorylated is more than 7500 nM; on PDGFRβ it was 66.3 nM.

In the case of `COC1CCN(CCNC(=O)c2cnc(C)c(Nc3nn(C)c4nc(Nc5cnn(C)c5)ncc34)c2)CC1` [Example 22, N-(2-(4-methoxypiperidin-1-yl)ethyl)-6-methyl-5-((1-methyl-6-((1-methyl-1H-pyrazol-4-yl)amino)-1H-pyrazolo[3,4-d]pyrimidin-3-yl)amino)nicotinamide], the half-maximal inhibitory concentration (IC50) was more than 7500 nM on VEGFR2, unphosphorylated and 88.7 nM against PDGFRβ.

Regarding `Cc1ncc(C(=O)NCCN2CCS(=O)(=O)CC2)cc1Nc1nn(C)c2nc(Nc3cnn(C)c3)ncc12` [Example 23, N-(2-(1,1-dioxidothiomorpholino)ethyl)-6-methyl-5-((1-methyl-6-((1-methyl-1H-pyrazol-4-yl)amino)-1H-pyrazolo[3,4-d]pyrimidin-3-yl)amino)nicotinamide], the IC50 on VEGFR2, unphosphorylated was more than 7500 nM; against PDGFRβ, 294 nM.

Consider `Cc1ncc(C(=O)NCCN2CCOCC23CC3)cc1Nc1nn(C)c2nc(Nc3cnn(C)c3)ncc12` [Example 24, N-(2-(7-oxa-4-azaspiro[2.5]octan-4-yl)ethyl)-6-methyl-5-((1-methyl-6-((1-methyl-1H-pyrazol-4-yl)amino)-1H-pyrazolo[3,4-d]pyrimidin-3-yl)amino)nicotinamide], for which the IC50 at VEGFR2, unphosphorylated is more than 7500 nM; at PDGFRβ, 22.1 nM.

Take `COCC1CCCN1CCNC(=O)c1cnc(C)c(Nc2nn(C)c3nc(Nc4cnn(C)c4)ncc23)c1` (stereo not drawn) [Example 25, N-(2-(2-(methoxymethyl)pyrrolidin-1-yl)ethyl)-6-methyl-5-((1-methyl-6-((1-methyl-1H-pyrazol-4-yl)amino)-1H-pyrazolo[3,4-d]pyrimidin-3-yl)amino)nicotinamide]: the IC50 on VEGFR2, unphosphorylated is more than 7500 nM; against PDGFRβ, 12.9 nM.

Take `Cc1ncc(C(=O)NCCN2CC3COCC3C2)cc1Nc1nn(C)c2nc(Nc3cnn(C)c3)ncc12` (stereo not drawn) [Example 26, 6-methyl-5-((1-methyl-6-((1-methyl-1H-pyrazol-4-yl)amino)-1H-pyrazolo[3,4-d]pyrimidin-3-yl)amino)-N-(2-(tetrahydro-1H-furo[3,4-c]pyrrol-5(3H)-yl)ethyl)nicotinamide]: the IC50 on VEGFR2, unphosphorylated was more than 7500 nM; against PDGFRβ, 92.5 nM.

With `Cn1nc(Nc2cc(C(=O)NCCN3CCCC3(C)C)ccc2F)c2cnc(Nc3ccnnc3)nc21` [Example 50, N-(2-(2,2-dimethylpyrrolidin-1-yl)ethyl)-4-fluoro-3-((1-methyl-6-(pyridazin-4-ylamino)-1H-pyrazolo[3,4-d]pyrimidin-3-yl)amino)benzamide], the IC50 against VEGFR2, unphosphorylated was more than 7500 nM; against PDGFRβ it was 45.8 nM.

Take `Cc1ncc(C(=O)NCCN2CCCC23CC3)cc1Nc1nn(C)c2nc(Nc3cnn(C)c3)ncc12` [Example 53, N-(2-(4-azaspiro[2.4]heptan-4-yl)ethyl)-6-methyl-5-((1-methyl-6-((1-methyl-1H-pyrazol-4-yl)amino)-1H-pyrazolo[3,4-d]pyrimidin-3-yl)amino)nicotinamide]: the IC50 on VEGFR2, unphosphorylated came to 4270 nM; against PDGFRβ it was 6.2 nM.

On to `Cc1ncc(C(=O)NCCN2CCOC3(CC3)C2)cc1Nc1nn(C)c2nc(Nc3cnn(C)c3)ncc12` [Example 54, N-(2-(4-oxa-7-azaspiro[2.5]octan-7-yl)ethyl)-6-methyl-5-((1-methyl-6-((1-methyl-1H-pyrazol-4-yl)amino)-1H-pyrazolo[3,4-d]pyrimidin-3-yl)amino)nicotinamide], for which the IC50 against VEGFR2, unphosphorylated came to 4730 nM; against PDGFRβ, 36.3 nM.

As for `Cc1ncc(C(=O)NCCN2CC[C@@H](C)C2)cc1Nc1nn(C)c2nc(Nc3cncnc3)ncc12` [Example 59, (R)-6-methyl-5-((1-methyl-6-(pyrimidin-5-ylamino)-1H pyrazolo-[3,4-d]pyrimidin-3-yl)amino)-N-(2-(3-methylpyrrolidin-1-yl)ethyl)nicotinamide], the IC50 was more than 7500 nM against VEGFR2, unphosphorylated and 190 nM on PDGFRβ (A10 cells, 3 hours compound, 15 ng/mL PDGFbb for 10 minutes, read-out: PDGFR Cellular IC50).

For the molecule `Cc1ncc(C(=O)NCCN2CCC3(CCC3)C2)cc1Nc1nn(C)c2nc(Nc3cnn(C)c3)ncc12` [Example 83, N-(2-(6-azaspiro[3.4]octan-6-yl)ethyl)-6-methyl-5-((1-methyl-6-((1-methyl-1H-pyrazol-4-yl)amino)-1H-pyrazolo[3,4-d]pyrimidin-3-yl)amino)nicotinamide], the IC50 against VEGFR2, unphosphorylated was more than 7500 nM; against PDGFRβ, 26.2 nM.
